One assay has as its target T1, CRBN (Homo sapiens, UniProt Q96SW2).
T1 construct: endogenous in cells; host or cells: primary human T cells / CD8+ T cells from peripheral blood
Description: Western blot for expression of CRBN relative to vinculin in human T cells (CRBN degradation). It is filed as cell-based. The following applies: read-out: Relative Density of CRBN (% of DMSO). An excerpt:
Bortez=bortezomib; MG132=proteasome inhibitor; MLN4924=NEDD8 inhibitor.
This assay is a standard Western blot assay for expression of CRBN relative to vinculin.
[…] 0.1 percent DMSO was used as a vehicle control.

A further assay concerns the target cereblon (CRBN) (Homo sapiens, UniProt Q96SW2). Description: Kd and % inhibition from FI. Format: binding. The following applies: for inhibition at 200 µM: read-out: % inhibition @ 200 uM from *FI.
[1] abbreviates: 24 h, 10nM, human T cells, 24 hours.
Where [2] appears, read: FI, read-out: Kd (FI) (converted).
Setting [3] is: cell does not state FI or ITC, read-out: Kd (A) FI/ITC.

Where two headings read alike, the source gives them in different places.

Sequence of cereblon (CRBN) (Q96SW2 whole entry, species assumed): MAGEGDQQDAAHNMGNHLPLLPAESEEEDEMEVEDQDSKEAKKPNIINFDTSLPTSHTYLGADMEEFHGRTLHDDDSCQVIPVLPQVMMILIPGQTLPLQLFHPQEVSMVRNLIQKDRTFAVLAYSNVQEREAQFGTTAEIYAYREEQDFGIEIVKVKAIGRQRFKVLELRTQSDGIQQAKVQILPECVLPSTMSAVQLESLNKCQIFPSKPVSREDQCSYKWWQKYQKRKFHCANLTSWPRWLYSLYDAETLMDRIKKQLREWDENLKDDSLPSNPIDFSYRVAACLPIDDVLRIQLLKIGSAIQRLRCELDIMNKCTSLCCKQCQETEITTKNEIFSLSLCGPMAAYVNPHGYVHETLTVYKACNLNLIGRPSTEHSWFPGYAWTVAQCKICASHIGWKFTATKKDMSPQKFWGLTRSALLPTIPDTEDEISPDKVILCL
T1 sequence (Q96SW2 whole entry): as the sequence (Q96SW2 whole entry, species assumed) above

In general, inhibition refers to the share of the control response that was lost under treatment. On to `O=C(CCc1cccc2c1CN(C1CCC(=O)NC1=O)C2=O)NCCOCCOCCOCCNC(=O)CCc1cccc2c1CN(C1CCC(=O)NC1=O)C2=O` (stereo not drawn) [SM3-011, N,N′-(((Oxybis(ethane-2,1-diyl))bis(oxy))bis(ethane-2,1-diyl))bis(3-(2-(2,6-dioxopiperidin-3-yl)-1-oxoisoindolin-4-yl)propanamide)], for which, at CRBN (10uM), the remaining activity at 10 µM amounted to 85.4%. Besides, the remaining activity at 0.01 µM on CRBN (setting [1]) was 102%. Also, the Kd at cereblon (CRBN) (setting [2]) was 14.8 ± 1.08 µM. The inhibition at 200 µM on cereblon (CRBN) stood at 73.39 ± 0.71%.

Consider `O=C(/C=C/c1cccc2c1CN(C1CCC(=O)NC1=O)C2=O)NCCOCCNC(=O)/C=C/c1cccc2c1CN(C1CCC(=O)NC1=O)C2=O` (stereo not drawn) [SM3-006, (2E,2′E)-N,N′-(Oxybis(ethane-2,1-diyl))bis(3-(2-(2,6-dioxopiperidin-3-yl)-1-oxoisoindolin-4-yl)acrylamide)], for which, at CRBN (10uM), the remaining activity at 10 µM worked out at 85.3%. On CRBN (setting [1]), the remaining activity at 0.01 µM is 110%. Moreover, the Kd on cereblon (CRBN) (setting [2]) was 15.2 ± 1.52 µM. The inhibition at 200 µM on cereblon (CRBN) turned out to be 72.9 ± 1.19%.

As for `O=C1CCC(N2C(=O)c3cccc(NC(=O)CCCCCCCCC(=O)Nc4cccc5c4C(=O)N(C4CCC(=O)NC4=O)C5=O)c3C2=O)C(=O)N1` (stereo not drawn) [EC1-132, N^1,N^10-bis(2-(2,6-Dioxopiperidin-3-yl)-1,3-dioxoisoindolin-4-yl)decanediamide], the remaining activity at 10 µM at CRBN (10uM) came to 33%. Further, the remaining activity at 0.01 µM at CRBN (setting [1]) came out at 33.4%. The “% inhibition @ 200 uM from *FI” value on cereblon (CRBN) is recorded as “n.b”.

For `O=C1CCC(NC(=O)CCCCCCCCC(=O)NC2CCC(=O)NC2=O)C(=O)N1` (stereo not drawn) [XS01-039, N^1,N^10-Bis(2,6-dioxopiperidin-3-yl)decanediamide], the remaining activity at 0.01 µM was 92.9% at CRBN (10nM, B2) and 61.3% at CRBN (setting [1]). For the same compound, the remaining activity at 10 µM was 13.1% on CRBN (10uM, B2) and 0.98% at CRBN (10uM). For the same compound, the Kd at cereblon (CRBN) (setting [3]) was found to be 161 ± 19.3 µM.

With `O=C1CCC(NC(=O)c2cccc(NC(=O)CCCC(=O)Nc3cccc(C(=O)NC4CCC(=O)NC4=O)c3)c2)C(=O)N1` (stereo not drawn) [XS01-074, N^1,N^5-Bis(3-((2,6-Dioxopiperidin-3-yl)carbamoyl)phenyl)glutaramide], the remaining activity at 10 µM on CRBN (10uM) is 25.9%. The Kd on cereblon (CRBN) (setting [3]) is 187 ± 16.2 µM.

As to `O=C1CCC(N2Cc3c(CCCOCCOCCOCCCc4cccc5c4CN(C4CCC(=O)NC4=O)C5=O)cccc3C2=O)C(=O)N1` (stereo not drawn) [SM2-129, 3,3′-((((Oxybis(ethane-2,1-diyl))bis(oxy))bis(propane-3,1-diyl))bis(1-oxoisoindoline-4,2-diyl))bis(piperidine-2,6-dione)], the remaining activity at 10 µM at CRBN (10uM) came to 12.4%. The remaining activity at 0.01 µM on CRBN (setting [1]) was found to be 53.6%. Also, the Kd at cereblon (CRBN) (setting [2]) was 11.1 ± 0.58 µM. The inhibition at 200 µM at cereblon (CRBN) was 76.2 ± 1.54%.

Regarding `O=C1CCC(N2C(=O)c3cccc(NC(=O)CCCC(=O)Nc4cccc5c4C(=O)N(C4CCC(=O)NC4=O)C5=O)c3C2=O)C(=O)N1` (stereo not drawn) [EC1-117, N^1,N^5-bis(2-(2,6-Dioxopiperidin-3-yl)-1,3-dioxoisoindolin-4-yl)glutaramide], the remaining activity at 10 µM on CRBN (10uM) was 19.8%. Moreover, on CRBN (setting [1]), the remaining activity at 0.01 µM is 114%. Also, the inhibition at 200 µM on cereblon (CRBN) was determined as 47.9 ± 11%.

As for `O=C(/C=C/c1cccc2c1CN(C1CCC(=O)NC1=O)C2=O)NCCOCCOCCNC(=O)/C=C/c1cccc2c1CN(C1CCC(=O)NC1=O)C2=O` (stereo not drawn) [SM3-003, (2E,2′E)-N,N′-((ethane-1,2-diylbis(oxy))bis(ethane-2,1-diyl))bis(3-(2-(2,6-dioxopiperidin-3-yl)-1-oxoisoindolin-4-yl)acrylamide)], the remaining activity at 10 µM at CRBN (10uM) worked out at 102%. Besides, the remaining activity at 0.01 µM on CRBN (setting [1]) amounted to 125%. The Kd at cereblon (CRBN) (setting [2]) was 14.3 ± 0.05 µM. Besides, the inhibition at 200 µM at cereblon (CRBN) is 72 ± 0.8%.

Take `O=C(CCc1cccc2c1CN(C1CCC(=O)NC1=O)C2=O)NCCOCCOCCNC(=O)CCc1cccc2c1CN(C1CCC(=O)NC1=O)C2=O` (stereo not drawn) [SM3-005, N,N′-((Ethane-1,2-diylbis(oxy))bis(ethane-2,1-diyl))bis(3-(2-(2,6-dioxopiperidin-3-yl)-1-oxoisoindolin-4-yl)propanamide)]: the remaining activity at 10 µM at CRBN (10uM) stood at 91.1%. For the same compound, on CRBN (setting [1]), the remaining activity at 0.01 µM was determined as 80.6%. Also, on cereblon (CRBN) (setting [2]), the Kd was 15 ± 0.97 µM. Moreover, on cereblon (CRBN), the inhibition at 200 µM came to 72.8 ± 1.38%.

On to `O=C1CCC(N2Cc3c(CCCOCCOCCOCCOCCCc4cccc5c4CN(C4CCC(=O)NC4=O)C5=O)cccc3C2=O)C(=O)N1` (stereo not drawn) [SM2-139, 3,3′-((4,7,10,13-Tetraoxahexadecane-1,16-diyl)bis(1-oxoisoindoline-4,2-diyl))bis(piperidine-2,6-dione)], for which, at CRBN (10uM), the remaining activity at 10 µM was 19.4%. Moreover, the remaining activity at 0.01 µM on CRBN (setting [1]) was 44.3%. The Kd at cereblon (CRBN) (setting [2]) was 9.38 ± 0.59 µM. The inhibition at 200 µM at cereblon (CRBN) stood at 79.6 ± 3.13%.

Take `O=C1CCC(N2Cc3c(OCc4ccc(CN5CCN(Cc6ccc(COc7cccc8c7CN(C7CCC(=O)NC7=O)C8=O)cc6)CC5)cc4)cccc3C2=O)C(=O)N1` (stereo not drawn) [EC1-168.MS]: the remaining activity at 10 µM at CRBN (10uM) came out at 107%. At cereblon (CRBN) (cell does not state FI or ITC), the “Kd (A) FI/ITC” value was “insoluble”.

`O=C1CCC(N2Cc3c(NC(=O)[C@H]4CC[C@H](C(=O)Nc5cccc6c5CN(C5CCC(=O)NC5=O)C6=O)CC4)cccc3C2=O)C(=O)N1` (stereo partly drawn) [EC1-154, (Trans)-N^1,N^4-Bis(2-(2,6-dioxopiperidin-3-yl)-1-oxoisoindolin-4-yl)cyclohexane-1,4-dicarboxamide]: the remaining activity at 0.01 µM at CRBN (24 h) was determined as 103%. Further, the remaining activity at 10 µM at CRBN was determined as 44.2%. Moreover, the inhibition at 200 µM on cereblon (CRBN) was determined as 18.4 ± 77%.

As for `Cc1sc2c(c1C)C(c1ccc(Cl)cc1)=N[C@H](CC(=O)NCCCCC(=O)N[C@H]1CC(=O)NC1=O)c1nnc(C)n1-2` [XS01-089], the Kd on cereblon (CRBN) (setting [3]) was determined as 353 ± 108 µM.

For the compound `O=C1CCC(N2Cc3c(CCCCCCCCCCc4cccc5c4CN(C4CCC(=O)NC4=O)C5=O)cccc3C2=O)C(=O)N1` (stereo not drawn) [EC2-093, 3,3′-(Decane-1,10-diylbis(1-oxoisoindoline-4,2-diyl))bis(piperidine-2,6-dione)], on CRBN (10uM), the remaining activity at 10 µM worked out at 13.3%. Also, the Kd on cereblon (CRBN) (setting [3]) was 35.5 ± 47.9 µM.

In the case of `Cc1sc2c(c1C)C(c1ccc(Cl)cc1)=N[C@H](CC(=O)NCCCCC(=O)NC1CCC(=O)NC1=O)c1nnc(C)n1-2` (stereo partly drawn) [EC2-092], on cereblon (CRBN) (setting [3]), the Kd stood at 226 ± 21.6 µM.

Turning to `O=C1CCC(N2C(=O)c3cccc(NC(=O)CCCCC(=O)Nc4cccc5c4C(=O)N(C4CCC(=O)NC4=O)C5=O)c3C2=O)C(=O)N1` (stereo not drawn) [EC1-120, N^1,N^6-bis(2-(2,6-Dioxopiperidin-3-yl)-1,3-dioxoisoindolin-4-yl)adipamide], at CRBN (10uM), the remaining activity at 10 µM was found to be 16.8%. Also, on CRBN (setting [1]), the remaining activity at 0.01 µM worked out at 95.3%. Moreover, the inhibition at 200 µM on cereblon (CRBN) was found to be 23.2 ± 20%.

As to `O=C1CCC(N2Cc3c(C#CCCCCCCC#Cc4cccc5c4CN(C4CCC(=O)NC4=O)C5=O)cccc3C2=O)C(=O)N1` (stereo not drawn) [EC2-086, 3,3′-(Deca-1,9-diyne-1,10-diylbis(1-oxoisoindoline-4,2-diyl))bis(piperidine-2,6-dione)], the remaining activity at 10 µM on CRBN (10uM) was found to be 10.3%. Further, on cereblon (CRBN) (setting [3]), the Kd came out at 86.5 ± 25.3 µM.

For `O=C(COc1cccc2c1C(=O)N(C1CCC(=O)NC1=O)C2=O)NCCCOCCCNC(=O)COc1cccc2c1C(=O)N(C1CCC(=O)NC1=O)C2=O` (stereo not drawn) [SM2-126], at CRBN (10uM), the remaining activity at 10 µM came out at 13.2%. Besides, at CRBN (setting [1]), the remaining activity at 0.01 µM came out at 136%. Moreover, at cereblon (CRBN) (setting [2]), the Kd was 13.7 ± 0.7 µM. The inhibition at 200 µM at cereblon (CRBN) worked out at 88.9 ± 1.54%.

For `O=C1CCC(N2C(=O)c3cccc(NC(=O)[C@H]4CC[C@@H](C(=O)Nc5cccc6c5C(=O)N(C5CCC(=O)NC5=O)C6=O)CC4)c3C2=O)C(=O)N1` (stereo partly drawn) [EC1-133, (cis)-N^1,N^4-bis(2-(2,6-Dioxopiperidin-3-yl)-1,3-dioxoisoindolin-4-yl)cyclohexane-1,4-dicarboxamide], the remaining activity at 10 µM on CRBN (10uM) was 10.3%. Further, the remaining activity at 0.01 µM at CRBN (setting [1]) was determined as 119%. For the same compound, the “% inhibition @ 200 uM from *FI” value on cereblon (CRBN) was “n.b”.

As for `O=C1CCC(N2Cc3c(NC(=O)CCCCCC(=O)Nc4cccc5c4CN(C4CCC(=O)NC4=O)C5=O)cccc3C2=O)C(=O)N1` (stereo not drawn) [EC1-141, N^1,N^7-Bis(2-(2,6-dioxopiperidin-3-yl)-1-oxoisoindolin-4-yl)heptanediamide], the remaining activity at 10 µM at CRBN (10uM) is 7.19%. Also, at CRBN (setting [1]), the remaining activity at 0.01 µM turned out to be 91.2%. For the same compound, the Kd at cereblon (CRBN) (setting [2]) was 22.1 ± 1.47 µM. Also, the inhibition at 200 µM at cereblon (CRBN) was 71.6 ± 2%.

As to `O=C(/C=C/c1cccc2c1CN(C1CCC(=O)NC1=O)C2=O)NCCOCCOCCOCCNC(=O)/C=C/c1cccc2c1CN(C1CCC(=O)NC1=O)C2=O` (stereo not drawn) [SM3-009, (2E,2′E)-N,N′-(((Oxybis(ethane-2,1-diyl))bis(oxy))bis(ethane-2,1-diyl))bis(3-(2-(2,6-dioxopiperidin-3-yl)-1-oxoisoindolin-4-yl)acrylamide)], the remaining activity at 10 µM on CRBN (10uM) was found to be 59.1%. In addition, at CRBN (setting [1]), the remaining activity at 0.01 µM stood at 108%. Also, the Kd at cereblon (CRBN) (setting [2]) was 8.21 ± 1.22 µM. In addition, at cereblon (CRBN), the inhibition at 200 µM was found to be 83.88 ± 0.28%.

Regarding `Cc1ncsc1-c1ccc(CNC(=O)[C@@H]2C[C@@H](O)CN2C(=O)[C@@H](NC(=O)COCCOCCOCCOCCCc2cccc3c2CN(C2CCC(=O)NC2=O)C3=O)C(C)(C)C)cc1` (stereo partly drawn) [SR3-108, (2S,4R)-1-((2S)-2-(tert-Butyl)-18-(2-(2,6-dioxopiperidin-3-yl)-1-oxoisoindolin-4-yl)-4-oxo-6,9,12,15-tetraoxa-3-azaoctadecanoyl)-4-hydroxy-N-(4-(4-methylthiazol-5-yl)benzyl)pyrrolidine-2-carboxamide], the Kd at cereblon (CRBN) (setting [2]) was 13.6 ± 1.51 µM.

Consider `O=C1CCC(N2Cc3c(NC(=O)CCCc4cn(CC(=O)Nc5cccc6c5C(=O)N(C5CCC(=O)NC5=O)C6=O)nn4)cccc3C2=O)C(=O)N1` (stereo not drawn) [XS01-122, 4-(1-(2-((2-(2,6-Dioxopiperidin-3-yl)-1,3-dioxoisoindolin-4-yl)amino)-2-oxoethyl)-1H-1,2,3-triazol-4-yl)-N-(2-(2,6-dioxopiperidin-3-yl)-1-oxoisoindolin-4-yl)butanamide], for which, at CRBN (10uM), the remaining activity at 10 µM came to 151%. Moreover, the remaining activity at 0.01 µM at CRBN (setting [1]) was found to be 255%.

Source of the values: US20250288573A1 (H. LEE MOFFITT CANCER CENTER AND RESEARCH INSTITUTE, INC., priority 2018, published 2025).
